{"source": "ChEMBL document CHEMBL3817824", "about": "“Synthesis and biological evaluation of new [1,2,4]triazolo[4,3-a]pyridine derivatives as potential c-Met inhibitors” (Bioorg Med Chem, 2016)", "key": {"[1]": {"target": "Hepatocyte growth factor receptor (Homo sapiens, UniProt P08581)", "assay": "Inhibition of c-Met (unknown origin) incubated for 1 hr by spectrophotometric analysis"}, "[2]": {"assay": "Cytotoxicity against human SNU5 cells assessed as reduction in cell survival incubated for 3 days by cell titre-glo assay", "settings": "SNU-5, 72 h"}, "[3]": {"assay": "Cytotoxicity against human MHCC97H cells assessed as reduction in cell survival incubated for 3 days by cell titre-glo assay", "format": "functional, cell-based", "settings": "72 h"}, "[4]": {"assay": "Cytotoxicity against human MHCC97L cells assessed as reduction in cell survival incubated for 3 days by cell titre-glo assay", "format": "functional, cell-based", "settings": "72 h"}, "[5]": {"assay": "Cytotoxicity against human HuH7 cells assessed as reduction in cell survival incubated for 3 days by cell titre-glo assay", "format": "functional, cell-based", "settings": "Huh-7, 72 h"}, "NCI-H1975": {"tested_on": "NCI-H1975", "assay": "Cytotoxicity against human NCI-H1975 cells assessed as reduction in cell survival incubated for 3 days by cell titre-glo assay", "format": "functional, cell-based", "settings": "NCI-H1975, 72 h"}, "A549": {"tested_on": "A549", "assay": "Cytotoxicity against human A549 cells assessed as reduction in cell survival incubated for 3 days by cell titre-glo assay", "format": "functional, cell-based", "settings": "A549, 72 h"}, "[6]": {"target": "RAC-alpha serine/threonine-protein kinase (Homo sapiens, UniProt P31749)", "assay": "Inhibition of AKT1 (unknown origin) incubated for 1 hr by spectrophotometric analysis"}, "[7]": {"target": "ALK tyrosine kinase receptor (Homo sapiens, UniProt Q9UM73)", "assay": "Inhibition of ALK (unknown origin) incubated for 1 hr by spectrophotometric analysis"}, "Aurora kinase A": {"target": "Aurora kinase A (Homo sapiens, UniProt O14965)", "assay": "Inhibition of Aurora A (unknown origin) incubated for 1 hr by spectrophotometric analysis"}, "[8]": {"target": "Tyrosine-protein kinase receptor UFO (Homo sapiens, UniProt P30530)", "assay": "Inhibition of AXL (unknown origin) incubated for 1 hr by spectrophotometric analysis"}, "[9]": {"target": "Protein-tyrosine kinase 6 (Homo sapiens, UniProt Q13882)", "assay": "Inhibition of BRK (unknown origin) incubated for 1 hr by spectrophotometric analysis"}, "[10]": {"target": "Cyclin-dependent kinase 2 (Homo sapiens, UniProt P24941)", "assay": "Inhibition of CDK2 (unknown origin) incubated for 1 hr by spectrophotometric analysis"}, "[11]": {"target": "Mast/stem cell growth factor receptor Kit (Homo sapiens, UniProt P10721)", "assay": "Inhibition of c-Kit (unknown origin) incubated for 1 hr by spectrophotometric analysis"}, "[12]": {"target": "Epidermal growth factor receptor (Homo sapiens, UniProt P00533)", "assay": "Inhibition of EGFR (unknown origin) incubated for 1 hr by spectrophotometric analysis"}, "[13]": {"target": "Epidermal growth factor receptor (Homo sapiens, UniProt P00533, L858R)", "assay": "Inhibition of EGFR L858R mutant (unknown origin) incubated for 1 hr by spectrophotometric analysis", "format": "protein assay"}, "Ephrin type-A receptor 1": {"target": "Ephrin type-A receptor 1 (Homo sapiens, UniProt P21709)", "assay": "Inhibition of EPHA1 (unknown origin) incubated for 1 hr by spectrophotometric analysis"}, "Ephrin type-B receptor 1": {"target": "Ephrin type-B receptor 1 (Homo sapiens, UniProt P54762)", "assay": "Inhibition of EPHB1 (unknown origin) incubated for 1 hr by spectrophotometric analysis"}, "[14]": {"target": "Mitogen-activated protein kinase 1 (Homo sapiens, UniProt P28482)", "assay": "Inhibition of ERK2 (unknown origin) incubated for 1 hr by spectrophotometric analysis"}, "[15]": {"target": "Fibroblast growth factor receptor 1 (Homo sapiens, UniProt P11362)", "assay": "Inhibition of FGFR1 (unknown origin) incubated for 1 hr by spectrophotometric analysis"}, "[16]": {"target": "Fibroblast growth factor receptor 3 (Homo sapiens, UniProt P22607)", "assay": "Inhibition of FGFR3 (unknown origin) incubated for 1 hr by spectrophotometric analysis"}, "[17]": {"target": "Fibroblast growth factor receptor 4 (Homo sapiens, UniProt P22455)", "assay": "Inhibition of FGFR4 (unknown origin) incubated for 1 hr by spectrophotometric analysis"}, "[18]": {"target": "Glycogen synthase kinase-3 beta (Homo sapiens, UniProt P49841)", "assay": "Inhibition of GSK3beta (unknown origin) incubated for 1 hr by spectrophotometric analysis"}, "[19]": {"target": "Receptor tyrosine-protein kinase erbB-2 (Homo sapiens, UniProt P04626)", "assay": "Inhibition of HER2 (unknown origin) incubated for 1 hr by spectrophotometric analysis"}, "[20]": {"target": "Receptor tyrosine-protein kinase erbB-4 (Homo sapiens, UniProt Q15303)", "assay": "Inhibition of HER4 (unknown origin) incubated for 1 hr by spectrophotometric analysis"}, "[21]": {"target": "Insulin-like growth factor 1 receptor (Homo sapiens, UniProt P08069)", "assay": "Inhibition of IGF-1R (unknown origin) incubated for 1 hr by spectrophotometric analysis"}, "[22]": {"target": "Tyrosine-protein kinase JAK3 (Homo sapiens, UniProt P52333)", "assay": "Inhibition of JAK3 (unknown origin) incubated for 1 hr by spectrophotometric analysis"}, "[23]": {"target": "Vascular endothelial growth factor receptor 2 (Homo sapiens, UniProt P35968)", "assay": "Inhibition of KDR (unknown origin) incubated for 1 hr by spectrophotometric analysis"}, "[24]": {"target": "Tyrosine-protein kinase Lck (Homo sapiens, UniProt P06239)", "assay": "Inhibition of LCK (unknown origin) incubated for 1 hr by spectrophotometric analysis"}, "[25]": {"target": "Leukocyte tyrosine kinase receptor (Homo sapiens, UniProt P29376)", "assay": "Inhibition of LTK (unknown origin) incubated for 1 hr by spectrophotometric analysis"}, "[26]": {"target": "Tyrosine-protein kinase Lyn (Homo sapiens, UniProt P07948)", "assay": "Inhibition of LYNA (unknown origin) incubated for 1 hr by spectrophotometric analysis"}, "[27]": {"target": "Muscle, skeletal receptor tyrosine-protein kinase (Homo sapiens, UniProt O15146)", "assay": "Inhibition of MUSK (unknown origin) incubated for 1 hr by spectrophotometric analysis"}, "[28]": {"target": "Platelet-derived growth factor receptor alpha (Homo sapiens, UniProt P16234)", "assay": "Inhibition of PDGFRalpha (unknown origin) incubated for 1 hr by spectrophotometric analysis"}, "[29]": {"target": "Platelet-derived growth factor receptor beta (Homo sapiens, UniProt P09619)", "assay": "Inhibition of PDGFRbeta (unknown origin) incubated for 1 hr by spectrophotometric analysis"}, "[30]": {"target": "Protein kinase C zeta type (Homo sapiens, UniProt Q05513)", "assay": "Inhibition of PKCzeta (unknown origin) incubated for 1 hr by spectrophotometric analysis"}, "[31]": {"target": "Serine/threonine-protein kinase N2 (Homo sapiens, UniProt Q16513)", "assay": "Inhibition of PKN2 (unknown origin) incubated for 1 hr by spectrophotometric analysis"}, "[32]": {"target": "Proto-oncogene tyrosine-protein kinase ROS (Homo sapiens, UniProt P08922)", "assay": "Inhibition of ROS (unknown origin) incubated for 1 hr by spectrophotometric analysis"}, "[33]": {"target": "High affinity nerve growth factor receptor (Homo sapiens, UniProt P04629)", "assay": "Inhibition of TRKA (unknown origin) incubated for 1 hr by spectrophotometric analysis"}, "[34]": {"target": "Non-receptor tyrosine-protein kinase TYK2 (Homo sapiens, UniProt P29597)", "assay": "Inhibition of TYK2 (unknown origin) incubated for 1 hr by spectrophotometric analysis"}, "[35]": {"target": "Tyrosine-protein kinase Yes (Homo sapiens, UniProt P07947)", "assay": "Inhibition of YES (unknown origin) incubated for 1 hr by spectrophotometric analysis"}, "[36]": {"target": "cAMP-dependent protein kinase catalytic subunit alpha (Homo sapiens, UniProt P17612)", "assay": "Inhibition of PKACalpha (unknown origin) incubated for 1 hr by spectrophotometric analysis"}}, "data": [{"smiles": "CN1C(=O)COc2c1cnc1ccc(Sc3nnc4c(F)cc(-c5cnn(C)c5)cn34)cc21", "note": "[DALMELITINIB]", "values": [{"measurement": "IC50", "setting": "[1]", "value": 0.0007, "unit": "µM"}, {"measurement": "IC50", "setting": "[2]", "value": 0.002, "unit": "µM"}, {"measurement": "IC50", "setting": "[3]", "value": 0.006, "unit": "µM"}, {"measurement": "IC50", "setting": "[4]", "value": 0.007, "unit": "µM"}, {"measurement": "IC50", "setting": "[5]", "value": "> 10", "unit": "µM"}, {"measurement": "IC50", "setting": "NCI-H1975", "value": "> 10", "unit": "µM"}, {"measurement": "IC50", "setting": "A549", "value": "> 10", "unit": "µM"}, {"measurement": "IC50", "setting": "[6]", "value": "> 30", "unit": "µM"}, {"measurement": "IC50", "setting": "[7]", "value": "> 30", "unit": "µM"}, {"measurement": "IC50", "setting": "Aurora kinase A", "value": "> 30", "unit": "µM"}, {"measurement": "IC50", "setting": "[8]", "value": 8.69, "unit": "µM"}, {"measurement": "IC50", "setting": "[9]", "value": "> 30", "unit": "µM"}, {"measurement": "IC50", "setting": "[10]", "value": "> 30", "unit": "µM"}, {"measurement": "IC50", "setting": "[11]", "value": "> 30", "unit": "µM"}, {"measurement": "IC50", "setting": "[12]", "value": "> 30", "unit": "µM"}, {"measurement": "IC50", "setting": "[13]", "value": "> 30", "unit": "µM"}, {"measurement": "IC50", "setting": "Ephrin type-A receptor 1", "value": "> 30", "unit": "µM"}, {"measurement": "IC50", "setting": "Ephrin type-B receptor 1", "value": "> 30", "unit": "µM"}, {"measurement": "IC50", "setting": "[14]", "value": "> 30", "unit": "µM"}, {"measurement": "IC50", "setting": "[15]", "value": "> 30", "unit": "µM"}, {"measurement": "IC50", "setting": "[16]", "value": "> 30", "unit": "µM"}, {"measurement": "IC50", "setting": "[17]", "value": "> 30", "unit": "µM"}, {"measurement": "IC50", "setting": "[18]", "value": 16.2, "unit": "µM"}, {"measurement": "IC50", "setting": "[19]", "value": "> 30", "unit": "µM"}, {"measurement": "IC50", "setting": "[20]", "value": "> 30", "unit": "µM"}, {"measurement": "IC50", "setting": "[21]", "value": "> 30", "unit": "µM"}, {"measurement": "IC50", "setting": "[22]", "value": "> 30", "unit": "µM"}, {"measurement": "IC50", "setting": "[23]", "value": "> 30", "unit": "µM"}, {"measurement": "IC50", "setting": "[24]", "value": "> 30", "unit": "µM"}, {"measurement": "IC50", "setting": "[25]", "value": "> 30", "unit": "µM"}, {"measurement": "IC50", "setting": "[26]", "value": "> 30", "unit": "µM"}, {"measurement": "IC50", "setting": "[27]", "value": "> 30", "unit": "µM"}, {"measurement": "IC50", "setting": "[28]", "value": "> 30", "unit": "µM"}, {"measurement": "IC50", "setting": "[29]", "value": "> 30", "unit": "µM"}, {"measurement": "IC50", "setting": "[30]", "value": "> 30", "unit": "µM"}, {"measurement": "IC50", "setting": "[31]", "value": "> 30", "unit": "µM"}, {"measurement": "IC50", "setting": "[32]", "value": 2.83, "unit": "µM"}, {"measurement": "IC50", "setting": "[33]", "value": "> 30", "unit": "µM"}, {"measurement": "IC50", "setting": "[34]", "value": "> 30", "unit": "µM"}, {"measurement": "IC50", "setting": "[35]", "value": "> 30", "unit": "µM"}, {"measurement": "IC50", "setting": "[36]", "value": "> 30", "unit": "µM"}]}]}
